Holding throughout (type): cell-based
Series [1] relates to CDCP1 in Bm7 lung cancer cells. Nature of the series: Western blot of ADAM9 and CDCP1 expression in Bm7 cells. To be noted: anchorage-free culture. As for the experimental part: (§1) Please refer to FIG. 1A, FIG. 1B and Table 2, which show the analysis results of the compound of Formula (I) inhibiting ADAM9 activity. In FIG. 1A, Bm7 lung cancer cells were treated with the derivatives of the compound 6X-0310, and then cultured under anchorage-free culture condition. The expressions of ADAM9 and CDCP1 in Bm7 lung cancer cells were detected by Western blot, in which EF1α is an internal control, and mock represents Bm7 lung cancer cells without treatment. […] In the experiment, the compounds of Formula (I) of Example 1 to Example 32 were further performed cytotoxicity assay to measure the IC50 value of the compounds of Formula (I) of the present disclosure in lung cancer cell lines.
For orientation: A western blot detects proteins with antibodies after separation by electrophoresis.

The subject of series [2] is lung cancer cells (TC1). Nature of the series: cytotoxicity assay in TC1 cells. The arrangement: key to effect of inhibiting tumor cell growth: “+” represents that the compound has the effect of inhibiting tumor cell growth. The conditions noted are these: for IC50: TC-1. As for the experimental part:
as §1

The test system of series [3] is lung cancer cells (A549). Nature of the series: cytotoxicity assay in A549 cells. Set-up: key to effect of inhibiting tumor cell growth: “+” represents that the compound has the effect of inhibiting tumor cell growth. The conditions noted are these: for IC50: Homo sapiens. As for the experimental part:
as §1

For series [4], the system named is lung cancer cells (Bm7brmx2-2nd). Briefly: cytotoxicity assay in Bm7brmx2-2nd cells. The arrangement: key to effect of inhibiting tumor cell growth: “+” represents that the compound has the effect of inhibiting tumor cell growth. As for the experimental part:
as §1

Series [5] relates to lung cancer cells (Bm7brmx2-1st). Nature of the series: cytotoxicity assay in Bm7brmx2-1st cells. The arrangement: key to effect of inhibiting tumor cell growth: “+” represents that the compound has the effect of inhibiting tumor cell growth. How it is done: as §1
For series [6], the system named is kidney cancer cells (293). Briefly: cytotoxicity assay in 293 cells. The arrangement: key to effect of inhibiting tumor cell growth: “+” represents that the compound has the effect of inhibiting tumor cell growth. To be noted: Homo sapiens, HEK293.
Series [7] can be described thus: cytotoxicity assay in 293 cells. The arrangement: key to effect of inhibiting tumor cell growth: “+” represents that the compound has the effect of inhibiting tumor cell growth. The conditions noted are these: 293.
For series [8], the system named is lung cancer cells (H1299). Briefly: cytotoxicity assay in H1299 cells. The arrangement: key to effect of inhibiting tumor cell growth: “+” represents that the compound has the effect of inhibiting tumor cell growth. To be noted: for effect of inhibiting tumor cell growth: H1299; for IC50: Homo sapiens, NCI-H1299. As for the experimental part: as §1
In series [9] the test system is lung cancer cells (Bm7brmx2). Nature of the series: cytotoxicity assay in Bm7brmx2 cells. Set-up: key to effect of inhibiting tumor cell growth: “+” represents that the compound has the effect of inhibiting tumor cell growth. How it is done:
as §1

The test system of series [10] is HNOF. Nature of the series: cytotoxicity assay in HNOF cells. Set-up: key to effect of inhibiting tumor cell growth: “+” represents that the compound has the effect of inhibiting tumor cell growth. To be noted: HNOF.
The nature of series [11]: cytotoxicity assay in HNOF cells. The arrangement: key to effect of inhibiting tumor cell growth: “+” represents that the compound has the effect of inhibiting tumor cell growth. The conditions noted are these: human, HNOF cells.

Consider nine molecules from patent US20220202783A1, “Use Of ADAM9 Inhibitor As Immunomodulator” (China Medical University, priority 2019, published 2022).

Some results are limits rather than exact numbers.

Turning to `N#C/C(=C\c1ccc(OCc2cccc(C(F)(F)F)c2)cc1)c1nc(CCN2C(=O)c3ccccc3C2=O)cs1` [6X-0310], the “expression of CDCP1” value in [1] is reported as “reduce the expression of CDCP1”. The “effect of inhibiting tumor cell growth” value in series [2], in series [3], in series [4], in [5], in series [7] and in series [8] was “+” in each case. For the same molecule, the “effect of inhibiting tumor cell growth” value in series [9] and in series [10] was “+” throughout. Also, the IC50 (usually the concentration at which inhibition is half-maximal) in [2] came out at 111 µM; in [3], 200 µM; in series [4], 250 µM; in series [5] it was 54.6 µM; in series [6] it was 58.9 µM; in series [8] it was 116 µM. The IC50 in series [9] was 176 µM; in [11] it was 141 µM.

Regarding `N#C/C(=C\C=C\c1ccccc1)c1nc(CCN2C(=O)c3ccccc3C2=O)cs1` [6X-0311], the “effect of inhibiting tumor cell growth” value in [2], in [3], in [4], in [5], in [7] and in series [8] was “+” in each case. Also, the “effect of inhibiting tumor cell growth” value in series [9] and in series [10] was “+” throughout. Also, the IC50 in series [2] was over 125 µM; in series [3], 211 µM; in series [4], 590 µM; in [5], over 50 µM; in series [6], 231 µM; in [8], 505 µM. Also, the results for the IC50 in [9] and in series [11] were over 125 µM and 411 µM, respectively.

`O=C1c2ccccc2C(=O)N1CCc1csc(-c2ccccc2)n1` [11W-0296]: the “effect of inhibiting tumor cell growth” value in series [2], in series [3], in series [4], in [5], in [7] and in series [8] was “+” in each case. For the same molecule, the “effect of inhibiting tumor cell growth” value in [9] and in series [10] was “+” in each case. Besides, the IC50 is 259 µM in [2]; 421 µM in series [3]; 147 µM in series [4]; 175 µM in series [5]; 62.6 µM in series [6]; 234 µM in series [8]. Moreover, the values for the IC50 in series [9] and in [11] were 1260 µM and 92 µM, respectively.

On to `O=C1c2ccccc2C(=O)N1CCc1csc(COc2cccc(C(F)(F)F)c2)n1` [12W-0232], for which the “effect of inhibiting tumor cell growth” value in [2], in series [3], in series [4], in series [5], in [7] and in series [8] was “+” in each case. For the same molecule, the “effect of inhibiting tumor cell growth” value in series [9] and in series [10] was “+” in each case. Besides, the IC50 is 99.2 µM in [2]; 184 µM in [3]; 77.7 µM in [4]; over 50 µM in [5]; 73.6 µM in [6]; 119 µM in [8]. In addition, the IC50 stood at 138 µM in series [9] and 103 µM in series [11].

`O=C1c2ccccc2C(=O)N1CCc1csc(-c2ccccn2)n1` [12W-0266]: the “effect of inhibiting tumor cell growth” value in series [2], in [3], in series [4], in series [5], in series [7] and in [8] was “+” each time. Further, the “effect of inhibiting tumor cell growth” value in [9] and in series [10] was “+” in each case. The IC50 came to 169 µM in series [2]; 190 µM in series [3]; 134 µM in series [4]; 88.8 µM in [5]; 122 µM in [6]; 253 µM in series [8]. Further, the IC50 turned out to be 429 µM in series [9] and 184 µM in series [11].

As to `O=C1c2ccccc2C(=O)N1CCc1csc(-c2ccc(F)cc2)n1` [12W-0272], the “effect of inhibiting tumor cell growth” value in series [2], in [3], in series [4], in series [5], in series [7] and in [8] was “+” in each case. The “effect of inhibiting tumor cell growth” value in [9] and in [10] was “+” in each case. Besides, the IC50 in series [2] worked out at 823 µM; in series [3], 177 µM; in [4], 264 µM; in [5] it was 130 µM; in series [6], 134 µM; in series [8], 845 µM. The IC50 in series [9] came out at 391 µM; in [11], 600 µM.

Consider `Cc1ccc(-c2nc(CCN3C(=O)c4ccccc4C3=O)cs2)cc1` [12W-0274], for which the “effect of inhibiting tumor cell growth” value in [2], in series [3], in series [4], in series [5], in [7] and in series [8] was “+” each time. In addition, the “effect of inhibiting tumor cell growth” value in series [9] and in series [10] was “+” each time. Moreover, the IC50 in series [2] is 161 µM; in series [3], over 125 µM; in [4], 472 µM; in series [5], 80.6 µM; in [6], 21.8 µM; in [8], 203 µM. For the same molecule, the IC50 in series [9] was found to be 913 µM; in series [11], 125 µM.

In the case of `O=C1c2ccccc2C(=O)N1CCc1csc(-c2cccc(F)c2)n1` [12W-0275], the “effect of inhibiting tumor cell growth” value in series [2], in series [3], in [4], in series [5], in series [7] and in [8] was “+” each time. In addition, the “effect of inhibiting tumor cell growth” value in series [9] and in series [10] was “+” in each case. In addition, the IC50 in series [2] amounted to 103 µM; in series [3] it was 199 µM; in [4], 441 µM; in [5], 97 µM; in series [6] it was 109 µM; in series [8] it was 156 µM. The IC50 in series [9] was found to be 212 µM; in series [11] it was 129 µM.

Turning to `O=C1c2ccccc2C(=O)N1CCc1csc(-c2nc(CCN3C(=O)c4ccccc4C3=O)cs2)n1` [12W-0290], the “effect of inhibiting tumor cell growth” value in [2], in series [3], in [4], in series [5], in series [7] and in series [8] was “+” in each case. Also, the “effect of inhibiting tumor cell growth” value in series [9] and in series [10] was “+” throughout. In addition, the IC50 was 399 µM in [2]; over 125 µM in series [3]; 3980 µM in [4]; 84.2 µM in [5]; 69.4 µM in series [6]; 159 µM in series [8]. For the same molecule, the figures for the half-maximal inhibitory concentration (IC50) in series [9] and in series [11] were 845 µM and 147 µM, respectively.
